What was measured:
[1] = Single- and multiple-dose plasma pharmacokinetics of GA and PCA after oral RLQ in healthy subjects; type: in vivo, human; details: LC-MS/MS after oral RLQ
Procedure: The study protocol was approved by the Ethics Committee of the Second Affiliated Hospital of Tianjin University of Traditional Chinese Medicine. […] Subjects were offered standard meals at 4 and 10 h after dosing. Water was not permitted during the hour before and the hour after dosing, except for 240 mL administered with dosing; additional water intake was allowed at all other times.
In the single-dose study, 8 g of RLQ was administered orally on day 1. A 7-d washout time was designed between single-dose and multiple-dose pharmacokinetic studies. In the multiple-dose study, subjects received multiple doses of RLQ (8 g, t.i.d.) for seven consecutive days from day 8 to day 14 and a single dose of RLQ (8 g) on the morning of day 15. […] Additional pre-dose samples were collected in the morning on days 12, 13 and 14. […] All samples were stored at −80 °C until analysis.
All analytes were extracted from plasma and urine samples by simple protein precipitation extraction method using acetonitrile. Briefly, 5 µL of internal standard solution and 300 μL of acetonitrile were added to the spiked blank matrix (100 μL) and vortexed for 3 min and then centrifuged at 13,000 × g for 10 min. The supernatant was transferred and dried using a flow of nitrogen. The residue was re-dissolved in 100 µL of 10% methanol solution containing 0.1% formic acid. An aliquot of 5 µL solution was injected into the LC-MS/MS system for analysis.
The chromatographic separation was performed on an Acquity Ultra Performance LC instrument (Waters, Milford, MA) with a gradient programme in an ACQUITY UPLC BEH C18 column (2.1 mm × 100 mm, 1.7 μm). […] The injection volume was 2 µL. The mass spectrometry analysis was performed on an AB Sciex Triple Quad 5500 MS (Framingham, MA) equipped with an ESI source.
The peak plasma concentration (Cmax) and time to reach the peak plasma concentration (Tmax) were calculated from the actual plasma concentration data. The area under the plasma concentration-time curve from zero to the last measurable concentration (AUC0–t) was calculated via the linear trapezoidal rule. AUC0–∞ was calculated using the following formula: AUC0–∞ = AUC0–t + Ct/ke, where Ct is the last plasma concentration measured. […] The accumulation index was calculated as AUCss/AUC0–t.

BCRP = target: T1, BCRP (Homo sapiens, UniProt Q9UNQ0); parameters: method as in Ebert et al. 2006; details: Caco-2 cells pre-treated with quercetin, ref Ebert et al. 2006; cited from earlier work
T1 sequence (Q9UNQ0 1-655): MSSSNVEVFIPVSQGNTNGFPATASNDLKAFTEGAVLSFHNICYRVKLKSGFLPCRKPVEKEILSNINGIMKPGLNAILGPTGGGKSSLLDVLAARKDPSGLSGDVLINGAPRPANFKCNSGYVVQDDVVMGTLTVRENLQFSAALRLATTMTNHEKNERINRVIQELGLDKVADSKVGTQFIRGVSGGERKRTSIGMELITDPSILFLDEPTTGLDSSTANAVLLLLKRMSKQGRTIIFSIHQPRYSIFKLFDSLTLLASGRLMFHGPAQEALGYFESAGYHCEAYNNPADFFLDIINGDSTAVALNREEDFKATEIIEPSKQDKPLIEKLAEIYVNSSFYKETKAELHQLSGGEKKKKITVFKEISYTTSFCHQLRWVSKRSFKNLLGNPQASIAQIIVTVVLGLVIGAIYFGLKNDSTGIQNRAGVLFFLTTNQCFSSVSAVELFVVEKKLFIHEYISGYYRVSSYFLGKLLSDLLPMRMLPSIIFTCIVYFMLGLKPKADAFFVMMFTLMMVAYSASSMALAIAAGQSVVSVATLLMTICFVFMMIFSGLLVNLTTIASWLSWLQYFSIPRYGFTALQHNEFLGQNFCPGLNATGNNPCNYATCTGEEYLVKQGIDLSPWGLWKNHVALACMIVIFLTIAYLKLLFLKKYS

O=c1c(O)c(-c2ccc(O)cc2)oc2cc(O)cc(O)c12 [kaempferol]
response in human plasma and urine samples [1]: little or no response

O=c1c(O)c(-c2ccc(O)c(O)c2)oc2cc(O)cc(O)c12 [quercetin]
response in human plasma and urine samples [1]: little or no response | apical transport of BCRP-mediated benzo(a)pyrene-3-sulphate (BCRP): increase
